For assay [1], the target named is T1, human GLP-1R receptor (Homo sapiens, UniProt P43220, L260F).
T1 construct: expressed in transfected cells; host or cells: CHO-K1 (ATCC CCL-61)
Put plainly: CHOK1 GLP-1R cAMP Assay (HTRF). The assay is classed as cell-based. The settings on record: CHO-K1 cells stably expressing human GLP-1R (Leu260Phe variant), 20 min at rt.

In assay [2] the target is T2, GLP-1R in a pancreatic insulinoma cell line (EndoC-PH1) (Homo sapiens, UniProt P43220).
T2 construct: host or cells: EndoC-βH1 human pancreatic beta cell line
T2 sequence (P43220 24-463): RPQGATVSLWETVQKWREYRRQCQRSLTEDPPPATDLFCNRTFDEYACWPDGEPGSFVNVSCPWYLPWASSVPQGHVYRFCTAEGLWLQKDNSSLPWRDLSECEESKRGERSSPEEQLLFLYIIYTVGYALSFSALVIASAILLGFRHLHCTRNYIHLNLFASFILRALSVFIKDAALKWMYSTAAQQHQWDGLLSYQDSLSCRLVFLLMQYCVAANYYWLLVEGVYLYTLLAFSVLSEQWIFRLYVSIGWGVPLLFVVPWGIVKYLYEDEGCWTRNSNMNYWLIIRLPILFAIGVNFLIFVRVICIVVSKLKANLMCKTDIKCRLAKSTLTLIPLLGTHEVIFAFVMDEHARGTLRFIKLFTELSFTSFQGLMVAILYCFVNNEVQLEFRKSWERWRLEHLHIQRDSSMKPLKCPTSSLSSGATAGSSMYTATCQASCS
The experiment in a line: EndoC cAMP Accumulation Assay (HTRF). It is filed as cell-based. The settings on record: EndoC-PH1 human pancreatic beta cell line, endogenous GLP-1R, 30 min at rt. The method, boiled down:
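Thawed human EndoC-βH1 cells, about 3000 per well, stimulated with compound 30 min at room temperature in HBSS/HEPES pH 7.4 with 0.1% BSA and 0.5 mM IBMX; cAMP by competitive HTRF. Responses as % activation relative to maximal GIP (82.5 nM), 4-parameter logistic fit.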
A general note: Time-resolved FRET reads energy transfer from a long-lived donor to a nearby acceptor.

Assay [3] addresses T3, human phosphodiesterase-3A (Homo sapiens, UniProt Q14432).
T3 construct: host or cells: Sf9 (Spodoptera frugiperda) cells
The experiment in a line: PDE3 Assay ([3H]cAMP to 5'AMP, SPA). The assay is classed as biochemical. The settings on record: human recombinant PDE3A expressed in Sf9 cells; 450 nM cAMP; 20 min at 22° C. As to the method: Evaluation of the effects of compounds on the activity of the human phosphodiesterase-3A is quantified by measuring the formation of 5′AMP from cAMP using a human recombinant is enzyme expressed in a clonal isolate of Spodoptera frugiperda cells (Sf9) cells.
The test compound, reference compound or water (control) are added to a buffer containing 40 mM tris(hydroxymethyl)aminomethane (Tris)/HCl (pH 7.4) and 8 mM MgCl2, 450 nMcAMP and 0.25 μCi [^3H]cAMP.
Thereafter, the reaction is initiated by addition of the enzyme (about 1U) and the mixture is incubated for 20 min at 22° C.
For basal control measurements, the enzyme is omitted from the reaction mixture.
Following incubation SPA beads are added. After 30 min at 22° C. under shaking, the amount of [^3H]5′AMP is quantified with a scintillation counter (Topcount, Packard).
The results are expressed as a percent inhibition of the control enzyme activity. The standard inhibitory reference compound is milrinone (CAS number 78415-72-2), which is tested in each experiment at several concentrations to obtain an inhibition curve from which its IC50 value is calculated.

Each structure is given as a SMILES string. Some results are limits rather than exact numbers.

T1 sequence (P43220 24-463 L260F): as the sequence (P43220 24-463) above, with L237F counted along it
T3 sequence (Q14432 whole entry): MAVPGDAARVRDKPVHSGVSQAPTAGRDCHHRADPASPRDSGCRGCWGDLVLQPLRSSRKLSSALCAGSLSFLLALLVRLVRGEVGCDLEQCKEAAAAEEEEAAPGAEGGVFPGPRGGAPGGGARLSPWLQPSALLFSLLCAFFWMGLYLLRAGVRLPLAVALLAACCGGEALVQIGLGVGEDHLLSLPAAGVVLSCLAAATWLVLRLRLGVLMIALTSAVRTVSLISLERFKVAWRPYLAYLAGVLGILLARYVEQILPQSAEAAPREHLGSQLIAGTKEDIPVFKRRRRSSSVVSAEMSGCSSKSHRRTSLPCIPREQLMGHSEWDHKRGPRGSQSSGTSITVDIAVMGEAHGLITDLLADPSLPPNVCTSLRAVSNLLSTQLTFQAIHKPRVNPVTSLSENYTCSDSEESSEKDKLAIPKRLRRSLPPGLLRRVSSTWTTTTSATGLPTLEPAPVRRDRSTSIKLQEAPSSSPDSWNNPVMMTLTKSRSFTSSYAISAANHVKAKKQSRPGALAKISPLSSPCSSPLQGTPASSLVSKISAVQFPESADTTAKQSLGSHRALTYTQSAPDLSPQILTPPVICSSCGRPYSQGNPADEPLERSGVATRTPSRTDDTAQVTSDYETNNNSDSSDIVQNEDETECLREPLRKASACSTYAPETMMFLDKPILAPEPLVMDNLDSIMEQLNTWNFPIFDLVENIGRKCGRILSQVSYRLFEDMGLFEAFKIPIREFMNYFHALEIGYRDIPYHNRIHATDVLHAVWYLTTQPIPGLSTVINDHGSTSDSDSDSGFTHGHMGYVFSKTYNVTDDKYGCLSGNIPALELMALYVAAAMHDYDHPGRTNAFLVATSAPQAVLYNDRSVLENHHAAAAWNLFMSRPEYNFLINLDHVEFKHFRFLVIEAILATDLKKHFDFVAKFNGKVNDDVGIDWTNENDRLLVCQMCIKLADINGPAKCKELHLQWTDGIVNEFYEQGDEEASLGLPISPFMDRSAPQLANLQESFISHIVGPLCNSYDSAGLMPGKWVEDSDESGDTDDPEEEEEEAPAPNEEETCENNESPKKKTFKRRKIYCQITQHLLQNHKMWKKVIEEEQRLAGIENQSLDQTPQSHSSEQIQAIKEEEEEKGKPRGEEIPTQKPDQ

For the molecule `C[C@]1(c2ccc(Cl)cn2)Oc2cccc(N3CCN(Cc4nc5c(F)cc(C(=O)O)cc5n4C[C@@H]4CCO4)[C@H]4CC[C@H]43)c2O1` (single isomer, unassigned) [Example 1c, 2-((1R*,6S*)-5-(R*)-2-(5-Chloropyridin-2-yl)-2-methylbenzo[d][1,3]dioxol-4-yl)-2,5-diazabicyclo[4.2.0]octan-2-yl)methyl)-4-fluoro-1-(((S)-oxetan-2-yl)methyl)-1H-benzo[d]imidazole-6-carboxylic acid], the EC50 in assay [1] was found to be 2.2 nM; in assay [2] it was 3.2 nM. Besides, the IC50 in assay [3] was over 100000 nM.

Consider `C[C@]1(c2ccc(Cl)cc2F)Oc2cccc(N3CCN(Cc4nc5c(F)cc(C(=O)O)cc5n4C[C@@H]4CCO4)[C@H]4CC[C@H]43)c2O1` (single isomer, unassigned) [Example 9b], for which the EC50 in assay [1] turned out to be 0.8 nM; in assay [2] it was 3.3 nM. In addition, the IC50 in assay [3] is over 100000 nM.

On to `C[C@]1(c2ccc(Cl)cn2)Oc2cccc(N3CCN(Cc4nc5c(F)cc(C(=O)O)cc5n4C[C@@H]4CCO4)[C@H]4CC[C@H]43)c2O1` (single isomer, unassigned) [Example 1b, 2-(((1R*,6S*)-5-((R*)-2-(5-Chloropyridin-2-yl)-2-methylbenzo[d][1,3]dioxol-4-yl)-2,5-diazabicyclo[4.2.0]octan-2-yl)methyl)-4-fluoro-1-(((S)-oxetan-2-yl)methyl)-1H-benzo[d]imidazole-6-carboxylic acid], for which the EC50 in assay [1] came to 1.2 nM; in assay [2], 2.9 nM. Further, the IC50 in assay [3] is over 87000 nM.

What is called EC50 is the concentration at which the effect is half-maximal. High values mean weaker potency, low ones greater potency. As a reminder, the IC50 is the concentration needed to halve the response being measured.

Values taken from patent publication US20240417393A1, “CERTAIN 2,5-DIAZABICYCLO[4.2.0]OCTANES AS GLP-1 RECEPTOR MODULATORS” (ASTRAZENECA AB, priority 2021, published 2024).
